Reference: article PMC12508949, “Evaluation of the Pharmacokinetic Interactions of Maytenus ilicifolia Mart. ex Reiss Extracts on Drug Intestinal Permeability and Hepatic Metabolism” (ACS Omega, 2025)

Experiments:
CYP3A4 [1] = tested on: CYP3A4; parameters: method as in Kimura et al.; conditions: ref Kimura et al., cited from earlier work; for inhibition of 6β-hydroxylation of testosterone: concentration of 100 μM; for IC50: read-out: IC50, 6β-hydroxylation of testosterone
CYP3A4 [2] = molecular target: CYP3A4 (Homo sapiens, UniProt P08684); experiment: CYP3A4 inhibition in human liver microsomes (midazolam 1-hydroxylation, nifedipine oxidation); conditions: extracts 2 mg/mL, secondary metabolites 100 μM
P-gp [3] = molecular target: T1, P-gp (Homo sapiens, UniProt P08183); parameters: determining P-gp activity, using a Caco-2 cell model; host or cells: Caco-2 cells; method as in Kitagawa et al.; conditions: KB-C2 cells; ref Kitagawa et al.; cited from earlier work
CYP3A enzyme = tested on: CYP3A enzyme; parameters: method as in previous studies; conditions: ref previous studies; cited from earlier work
P-gp [4] = molecular target: T1, P-gp; conditions: Caco-2; epicatechin 100 μM; reduced P app(B–A) and efflux of fexofenadine

CYP3A4 (Homo sapiens, UniProt P08684), sequence (P08684 whole entry): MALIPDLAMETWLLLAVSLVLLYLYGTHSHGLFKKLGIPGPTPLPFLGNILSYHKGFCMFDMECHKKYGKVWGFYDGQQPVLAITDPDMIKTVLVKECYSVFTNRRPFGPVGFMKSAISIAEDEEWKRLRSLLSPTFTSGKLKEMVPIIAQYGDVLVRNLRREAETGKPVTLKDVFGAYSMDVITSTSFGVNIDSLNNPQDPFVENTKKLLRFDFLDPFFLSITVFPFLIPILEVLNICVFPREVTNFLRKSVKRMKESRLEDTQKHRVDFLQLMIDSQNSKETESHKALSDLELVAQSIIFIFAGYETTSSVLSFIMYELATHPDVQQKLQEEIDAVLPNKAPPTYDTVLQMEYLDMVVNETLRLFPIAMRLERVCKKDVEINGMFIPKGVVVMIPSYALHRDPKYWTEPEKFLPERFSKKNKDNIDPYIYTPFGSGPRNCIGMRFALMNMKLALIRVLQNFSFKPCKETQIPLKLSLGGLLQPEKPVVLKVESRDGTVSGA
T1 sequence (P08183 whole entry): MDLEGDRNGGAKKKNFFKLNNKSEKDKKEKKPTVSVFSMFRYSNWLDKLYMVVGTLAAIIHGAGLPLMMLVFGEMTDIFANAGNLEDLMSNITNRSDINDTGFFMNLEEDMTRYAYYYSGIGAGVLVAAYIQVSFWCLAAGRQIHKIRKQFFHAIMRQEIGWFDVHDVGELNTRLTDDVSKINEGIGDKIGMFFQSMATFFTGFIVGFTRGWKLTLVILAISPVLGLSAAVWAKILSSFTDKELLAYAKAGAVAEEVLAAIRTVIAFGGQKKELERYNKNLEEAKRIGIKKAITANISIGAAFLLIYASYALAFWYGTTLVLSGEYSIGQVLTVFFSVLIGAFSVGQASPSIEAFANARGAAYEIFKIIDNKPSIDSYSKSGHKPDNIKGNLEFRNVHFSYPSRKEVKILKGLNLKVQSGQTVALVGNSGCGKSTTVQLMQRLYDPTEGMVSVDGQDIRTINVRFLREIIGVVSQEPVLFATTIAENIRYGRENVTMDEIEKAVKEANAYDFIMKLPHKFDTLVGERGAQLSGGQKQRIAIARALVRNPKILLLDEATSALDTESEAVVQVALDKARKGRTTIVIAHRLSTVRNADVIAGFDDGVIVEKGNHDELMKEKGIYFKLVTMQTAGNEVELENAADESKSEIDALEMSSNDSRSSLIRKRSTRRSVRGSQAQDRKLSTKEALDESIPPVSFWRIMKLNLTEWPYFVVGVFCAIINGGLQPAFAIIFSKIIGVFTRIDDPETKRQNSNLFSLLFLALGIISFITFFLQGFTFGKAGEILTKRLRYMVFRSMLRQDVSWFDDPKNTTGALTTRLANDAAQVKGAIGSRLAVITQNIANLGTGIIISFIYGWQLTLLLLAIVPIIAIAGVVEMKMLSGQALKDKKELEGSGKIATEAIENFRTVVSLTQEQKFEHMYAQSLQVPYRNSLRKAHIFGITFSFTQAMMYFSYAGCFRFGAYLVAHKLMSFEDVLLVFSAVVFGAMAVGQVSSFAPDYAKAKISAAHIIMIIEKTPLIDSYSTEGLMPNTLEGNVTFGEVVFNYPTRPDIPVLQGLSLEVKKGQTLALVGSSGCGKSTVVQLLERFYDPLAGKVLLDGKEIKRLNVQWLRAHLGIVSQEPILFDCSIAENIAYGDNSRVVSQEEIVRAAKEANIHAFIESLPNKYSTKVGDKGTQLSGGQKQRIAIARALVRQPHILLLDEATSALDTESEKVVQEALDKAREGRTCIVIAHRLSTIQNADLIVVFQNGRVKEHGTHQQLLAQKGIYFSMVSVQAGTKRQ

| Structure (SMILES) | inhibition of 6β-hydroxylation of testosterone (CYP3A4 [1]) [%] | IC50 (CYP3A4 [1]) [µM] | inhibitory activity on the CYP3A enzyme, testosterone 6β-hydroxylation (CYP3A enzyme) | other results |
| --- | --- | --- | --- | --- |
| O=c1c(O)c(-c2ccc(O)cc2)oc2cc(O)cc(O)c12 [kaempferol] | 100 | 8.8 | – | – |
| O=c1c(O)c(-c2ccc(O)c(O)c2)oc2cc(O)cc(O)c12 [quercetin] | […] | […] | – | remaining activity (%RA), midazolam 1-hydroxylation (CYP3A4 [2]; negative control = 100%): markedly inhibited; remaining activity (%RA), nifedipine oxidation (CYP3A4 [2]; negative control = 100%): markedly inhibited |
| Oc1cc(O)c2c(c1)O[C@H](c1ccc(O)c(O)c1)[C@H](O)C2 [epicatechin] | – | – | 50% | effect on P-gp activity (in words) (P-gp [3]): did not observe any effect; P-gp inhibitory potential (in words) (P-gp [4]): slight inhibitory potential |
| O.Oc1cc(O)c2c(c1)O[C@H](c1ccc(O)c(O)c1)[C@@H](O)C2 [catechin] | – | – | higher than 50% | remaining activity (%RA) of CYP3A4, substrate reaction not specified (CYP3A4 [2]): higher than 50% |
